Measured values taken from US20230212222A1 (ANYGEN CO., LTD., priority 2020, published 2023).
Square brackets hold non-standard residues; d marks the D form. Peptide text beside a SMILES is read from it. * marks the point of attachment. His(Trt) = N[C@@H](Cc1cn(C(c2ccccc2)(c2ccccc2)c2ccccc2)cn1)C(=O)O; His(τ-CHPh2) = N[C@@H](Cc1cn(C(c2ccccc2)c2ccccc2)cn1)C(=O)O; Biotin = O=C1N[C@H]2[C@H](CS[C@H]2CCCCC(=O)*)N1; Bip = N[C@@H](Cc1ccc(-c2ccccc2)cc1)C(=O)O; dPhe(4-Me) = Cc1ccc(C[C@@H](N)C(=O)O)cc1; Phe(4-Me) = Cc1ccc(C[C@H](N)C(=O)O)cc1; Myristoyl = CCCCCCCCCCCCCC(=O)*; d3Pal = N[C@H](Cc1cccnc1)C(=O)O; Octanoyl = CCCCCCCC(=O)*

Assays:
GPR39 [1] = target: T1, GPR39 (Homo sapiens, UniProt O43194); experiment: luciferase assay system (SRE luciferase reporter gene) for GPR39 in CV-1 cells; settings: for EC50: EC50, CV-1 cells, GPR39 and SRE luciferase adenovirus, treated 6 hours, luminometer
T1 sequence (O43194 1-453): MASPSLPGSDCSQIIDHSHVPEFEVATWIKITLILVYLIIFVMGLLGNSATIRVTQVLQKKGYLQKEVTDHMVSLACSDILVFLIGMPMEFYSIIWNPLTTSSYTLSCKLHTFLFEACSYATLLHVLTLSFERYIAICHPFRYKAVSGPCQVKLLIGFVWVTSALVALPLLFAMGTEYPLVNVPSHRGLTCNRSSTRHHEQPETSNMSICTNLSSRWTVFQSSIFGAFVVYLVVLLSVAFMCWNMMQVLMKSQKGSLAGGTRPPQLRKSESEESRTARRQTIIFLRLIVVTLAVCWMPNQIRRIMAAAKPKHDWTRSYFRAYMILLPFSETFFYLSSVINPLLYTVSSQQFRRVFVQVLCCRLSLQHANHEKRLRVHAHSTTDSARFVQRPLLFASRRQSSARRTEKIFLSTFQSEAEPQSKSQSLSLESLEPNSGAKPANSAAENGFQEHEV
Protocol: (§1) Specifically, the fibroblast cell line CV-1 (1×10^5 cells/ml, Korea Cell Line Bank) was cultured in a 96 well cell culture plate for 24 hours, and then treated with GPR39 inserted into adenovirus and SRE (serum response element) luciferase at 50 MOI (multiplicity of infection) and 25 MOI virus for 3 hours, respectively, and then cultured for 24 hours.

GPR39 [2] = target: T1, GPR39
Protocol: as §1

| Compound | EC50 (GPR39 [1]) | ECmax (-fold induction over basal) (GPR39 [2]) | ECmax value (in words) (GPR39 [1]; comment on Table 3) | activity level for GPR39 (in words) (GPR39 [1]; comment on Table 3, listed as HIKFY-30) | activity level for GPR39 (in words) (GPR39 [1]; comment on Table 3, listed as HJKFY-30) | activity level for GPR39 (in words) (GPR39 [1]; comment on Table 3) |
| --- | --- | --- | --- | --- | --- | --- |
| CCCCCCCC(=O)NCCCC[C@H](NC(=O)[C@@H](N)Cc1cn(-c2ccccc2)cn1)C(=O)N[C@H](Cc1ccc(C)cc1)C(=O)N[C@@H](Cc1ccc(O)cc1)C(=O)O [HKFY-58, ((R)-2-((S)-2-((S)-2-amino-3-(1-phenyl-1H-imidazol-4-yl)propanamido)-6-octanamidohexanamido)-3-(p-tolyl)propanoyl)-L-tyrosine] | 20 ± 2 nM | 9.12 ± 2.1 -fold induction over basal |  |  |  |  |
| CCCCCCCC(=O)NCCCC[C@H](NC(=O)[C@@H](N)Cc1cn(C(c2ccccc2)(c2ccccc2)c2ccccc2)cn1)C(=O)N[C@H](Cc1ccc(C)cc1)C(=O)N[C@@H](Cc1ccc(O)cc1)C(=O)O [HKFY-30, ((R)-2-((S)-2-((S)-2-amino-3-(1-trityl-1H-imidazol-4-yl)propanamido)-6-octanamidohexanamido)-3-(p-tolyl)propanoyl)-L-tyrosine] (H-[His(Trt)]K(Octanoyl)[dPhe(4-Me)]Y-OH) | 8 ± 1 nM | 23.88 ± 3.04 -fold induction over basal | high ECmax value | most excellent activity | higher activity level than other HJKFY derivatives |  |
| CCCCCCCCCCCCCC(=O)NCCCC[C@H](NC(=O)[C@@H](N)Cc1cn(C(c2ccccc2)(c2ccccc2)c2ccccc2)cn1)C(=O)N[C@@H](Cc1ccccc1)C(=O)N[C@@H](Cc1ccc(O)cc1)C(=O)O [HKFY-26, N6-tetradecanoyl-N2-(Nt-trityl-L-histidyl)-L-lysyl-L-phenylalanyl-L-tyrosine] (H-[His(Trt)]K(Myristoyl)FY-OH) | 280 ± 20 nM | 19.82 ± 0.57 -fold induction over basal |  |  |  |  |
| CCCCCCCC(=O)NCCCC[C@H](NC(=O)[C@H](Cc1cn(C(c2ccccc2)c2ccccc2)cn1)NC(=O)CCCC[C@@H]1SC[C@@H]2NC(=O)N[C@@H]21)C(=O)N[C@@H](Cc1ccc(C)cc1)C(=O)N[C@@H](Cc1ccc(O)cc1)C(=O)O [HKFY-72, ((S)-2-((S)-2-((S)-3-(1-benzhydryl-1H-imidazol-4-yl)-2-(5-((3aS,4S,6aR)-2-oxohexahydro-1H-thieno[3,4-d]imidazol-4-yl)pentanamido)propanamido)-6-octanamidohexanamido)-3-(p-tolyl)propanoyl)-L-tyrosine] (Biotin-[His(τ-CHPh2)]K(Octanoyl)[Phe(4-Me)]Y-OH) | 11 ± 2 nM | 10.4 ± 1.12 -fold induction over basal |  |  |  |  |
| CCCCCCCC(=O)NCCCC[C@H](NC(=O)[C@@H](N)Cc1cn(C(c2ccccc2)(c2ccccc2)c2ccccc2)cn1)C(=O)N[C@@H](Cc1ccccc1)C(=O)N[C@@H](Cc1c[nH]c2ccccc12)C(=O)O [HKFY-46, N6-octanoyl-N2-(Nt-trityl-L-histidyl)-L-lysyl-L-phenylalanyl-L-tryptophan] (H-[His(Trt)]K(Octanoyl)FW-OH) | 260 ± 150 nM | 20 ± 0.28 -fold induction over basal |  |  |  |  |
| CCCCCCCC(=O)NCCCC[C@H](NC(=O)[C@@H](N)Cc1cn(C(c2ccccc2)(c2ccccc2)c2ccc(C)cc2)cn1)C(=O)N[C@@H](Cc1ccccc1)C(=O)N[C@@H](Cc1ccc(O)cc1)C(=O)O [HKFY-5, N2-(Nt-(diphenyl(p-tolyl)methyl)-L-histidyl)-N6-octanoyl-L-lysyl-L-phenylalanyl-L-tyrosine] | 1840 ± 200 nM | 16 ± 1.7 -fold induction over basal |  |  |  |  |
| CCCCCCCC(=O)NCCCC[C@H](NC(=O)[C@@H](N)Cc1cn(C(c2ccccc2)(c2ccccc2)c2ccccc2)cn1)C(=O)N[C@H](Cc1cccnc1)C(=O)N[C@@H](Cc1ccc(O)cc1)C(=O)O [HKFY-73, ((R)-2-((S)-2-((S)-2-amino-3-(1-trityl-1H-imidazol-4-yl)propanamido)-6-octanamidohexanamido)-3-(pyridin-3-yl)propanoyl)-L-tyrosine] (H-[His(Trt)]K(Octanoyl)[d3Pal]Y-OH) | 23 ± 1 nM | 11.6 ± 2.3 -fold induction over basal |  |  |  |  |
| CCCCCCCC(=O)NCCCC[C@H](NC(=O)[C@@H](N)Cc1c[nH]c(-c2cccs2)n1)C(=O)N[C@H](Cc1ccc(C)cc1)C(=O)N[C@@H](Cc1ccc(O)cc1)C(=O)O [HKFY-63, ((R)-2-((S)-2-((S)-2-amino-3-(2-(thiophen-2-yl)-1H-imidazol-4-yl)propanamido)-6-octanamidohexanamido)-3-(p-tolyl)propanoyl)-L-tyrosine] |  | 13.5 ± 1.8 -fold induction over basal |  |  |  | higher activity level than other HJKFY derivatives |
| CCCCCCCC(=O)NCCCC[C@H](NC(=O)[C@@H](N)Cc1cn(C(c2ccccc2)c2ccccc2)cn1)C(=O)N[C@H](Cc1ccc(C)cc1)C(=O)N[C@@H](Cc1ccc(O)cc1)C(N)=O [HKFY-66, N-((S)-5-((S)-2-amino-3-(1-benzhydryl-1H-imidazol-4-yl)propanamido)-6-(((R)-1-(((S)-1-amino-3-(4-hydroxyphenyl)-1-oxopropan-2-yl)amino)-1-oxo-3-(p-tolyl)propan-2-yl)amino)-6-oxohexyl)octanamide] (H-[His(τ-CHPh2)]K(Octanoyl)[dPhe(4-Me)]Y-NH2) | 11 ± 1 nM | 20.2 ± 3.5 -fold induction over basal |  |  |  |  |
| CCCCCCCC(=O)NCCCC[C@H](NC(=O)[C@@H](N)Cc1cn(C(c2ccccc2)c2ccc(OC)cc2)cn1)C(=O)N[C@H](Cc1ccc(C)cc1)C(=O)N[C@@H](Cc1ccc(O)cc1)C(=O)O (stereo partly drawn) [HKFY-64, ((2R)-2-((2S)-2-((2S)-2-amino-3-(1-((4-methoxyphenyl)(phenyl)methyl)-1H-imidazol-4-yl)propanamido)-6-octanamidohexanamido)-3-(p-tolyl)propanoyl)-L-tyrosine] | 7 ± 1 nM | 16 ± 1.5 -fold induction over basal |  |  |  | higher activity level than other HJKFY derivatives |
| CCCCCCCC(=O)NCCCC[C@H](NC(=O)[C@H](Cc1cn(C(c2ccccc2)(c2ccccc2)c2ccccc2)cn1)NC(=O)CCCC[C@@H]1SC[C@@H]2NC(=O)N[C@@H]21)C(=O)N[C@@H](Cc1ccc(-c2ccccc2)cc1)C(=O)N[C@@H](Cc1ccc(O)cc1)C(=O)O [HKFY-45, ((S)-3-([1,1′-biphenyl]-4-yl)-2-((S)-6-octanamido-2-((S)-2-(5-((3aS,4S,6aR)-2-oxohexahydro-1H-thieno[3,4-d]imidazol-4-yl)pentanamido)-3-(1-trityl-1H-imidazol-4-yl)propanamido)hexanamido)propanoyl)-L-tyrosine] (Biotin-[His(Trt)]K(Octanoyl)[Bip]Y-OH) | 140 ± 50 nM | 21 ± 2.58 -fold induction over basal |  |  |  |  |
| CCCCCCCC(=O)NCCCC[C@H](NC(=O)[C@@H](N)Cc1cn(Cc2ccc(-c3ccccc3-c3nnn[nH]3)cc2)cn1)C(=O)N[C@H](Cc1ccc(C)cc1)C(=O)N[C@@H](Cc1ccc(O)cc1)C(=O)O [HKFY-77, ((R)-2-((S)-2-((S)-3-(1-((2′-(1H-tetrazol-5-yl)-[1,1′-biphenyl]-4-yl)methyl)-1H-imidazol-4-yl)-2-aminopropanamido)-6-octanamidohexanamido)-3-(p-tolyl)propanoyl)-L-tyrosine] | 7 ± 2 nM | 11.6 ± 2.14 -fold induction over basal |  |  |  |  |
